Drawing on ChEMBL document CHEMBL5209567, “Membrane potential based assay for SLC2A9 using HEK-293 SLC2A9 OE cells” (2022), this text covers EC50 for 2 compounds.

Test [1] deals with T1, Solute carrier family 2, facilitated glucose transporter member 9 (Homo sapiens, UniProt Q9NRM0).
T1 sequence (Q9NRM0 whole entry): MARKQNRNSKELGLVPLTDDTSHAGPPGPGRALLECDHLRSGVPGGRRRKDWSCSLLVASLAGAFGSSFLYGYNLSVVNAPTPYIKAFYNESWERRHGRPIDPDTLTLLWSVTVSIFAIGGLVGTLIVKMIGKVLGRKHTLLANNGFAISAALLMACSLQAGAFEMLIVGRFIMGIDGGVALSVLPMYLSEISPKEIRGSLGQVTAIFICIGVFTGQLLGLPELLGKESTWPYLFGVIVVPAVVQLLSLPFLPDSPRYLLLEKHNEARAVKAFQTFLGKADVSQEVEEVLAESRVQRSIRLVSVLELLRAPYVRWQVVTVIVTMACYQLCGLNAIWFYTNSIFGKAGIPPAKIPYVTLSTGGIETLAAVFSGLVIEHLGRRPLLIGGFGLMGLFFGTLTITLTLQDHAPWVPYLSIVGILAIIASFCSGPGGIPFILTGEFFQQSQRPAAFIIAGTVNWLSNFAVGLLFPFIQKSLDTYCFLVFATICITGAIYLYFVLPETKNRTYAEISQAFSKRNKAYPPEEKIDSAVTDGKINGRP
Kind of test: Substrate uptake by the Glucose Transporter Type 9 (GLUT9, SLC2A9) as assessed by the fluorescent FLIPR membrane potential dye in HEK-293 cells stably transfected with SLC2A9 isoform 1 (PubChem AID: 1794831). The class given is functional, cell-based, HEK293.

Test [2] deals with T1, Solute carrier family 2, facilitated glucose transporter member 9. Kind of test: Substrate uptake by the Glucose Transporter Type 9 (GLUT9, SLC2A9) as assessed by the fluorescent FLIPR membrane potential dye in HEK-293 cells stably transfected with SLC2A9 isoform 2 (PubChem AID: 1794831). The class given is functional, cell-based, HEK293.

As a reminder, the EC50 is the concentration needed to bring the measured effect to its halfway point. `O=C(O)c1cc(=O)[nH]c(=O)[nH]1` [OROTIC ACID]: the EC50 in test [1] and in test [2] (read-out: EC50) was 1000 µM throughout.

`Oc1nc(O)c2nc(O)[nH]c2n1` [URIC ACID]: the EC50 in test [1] was 300 µM; in test [2] (hek293), “Ec50 Cannot Be Calculated For Isoform 2”.
